Experimental findings from US5470714A, “One-step free fatty acid determination method” (Lidak Pharmaceuticals, priority 1993, dated 1995) are described below.

One may read the Kd as the free concentration of one partner at which half of the binding sites on the other are occupied at equilibrium, for simple one-to-one binding.

Positions count from the first letter of the chain named.

For test [1], the target named is ADIFAB (Acrylodan derivatized native rat I-FABP, Lys27) (Rattus norvegicus, UniProt P02693). Briefly: biochemical. The test is classed as binding. As to conditions: for rank of Kd, in words: among the long chain FA of Table I. Here is the method: In most of the studies FFA was added to ADIFAB, in a buffer (A) consisting of 10 Mm HEPES, 150 Mm NaCI, 5 mM KCI, and 1 mM NaHPO4 at pH 7.4, as the sodium salt of the fatty acid. […] FA bind to most surfaces and values of the total FA concentration ([FAT]) were corrected for FA binding to cuvette and container walls. This binding was determined using trace amounts of […] labeled FA and, separately, ADIFAB florescence to determine the degree of FA loss upon transfer from one container to another. […] To minimize FA binding to surfaces, the monomer concentrations of stock solutions of the Na salts were maintained at pH >9.0 in water, and were warmed to >37° C. just prior to use. The polyunsaturated forms of the FA are subject to oxidation and it was observed that dissociation constants for binding to ADIFAB (Kd) were considerably greater for the oxidized FA. Care was taken to reduce the exposure of the FA salts to oxygen (all handling was carried out under Argon) and to store them at -20° C.
The concentrations of FA in the aqueous phase (FFA) and FA bound to ADIFAB ([FAb ]) were determined from the ratio of fluorescence emission intensities at 432 and 505 nm (R). The values FFA and [FAb ]were related to the ratio of intensities essentially by the method of Grynkiewicz et. al. (Grynkiewicz, G., Poenie, M., & Tsien, R. Y. (1985) J. Biol. Chem. 260, 3440-3450), according to which:
[FAb ]=[ADIFABtotal ]Q(fr)/(1-fr+FRQ) FR
are the ADIFAB intensities with zero and saturating concentrations of FFA, Ro is the intensity ratio in the absence of FFA and Rmax is the value when ADIFAB is saturated.
Because of the limiting solubility of long chain FA in aqueous solution Rmax and Q cannot. in general, be determined directly. To determine Rmax and Q, ADIFAB was titrated with lauric acid (12:0) whose high CMC allowed maximum R values (~10-11) to be measured that were considerably greater than with longer chain FA. From this titration a linear correlation was found between Q and R. Using Q, R pairs predicted by this relationship, a two parameter (Kd and Rmax) least squares analysis of each FA was done using the equation for equilibrium binding;
1/[FAb ]=(Kd/[ADIFAB])/FFA+1/[ADIFAB] (3)
Optimal Q and Rmax values obtained in this analysis were in the range 17-22 and 10 and 13, respectively, with average values of 19.5 and 11.5. Final Kd values for each FA were then determined by least squares analysis of equation (3) with Q and Rmax fixed at 19.5 and 11.5, respectively.
Fluorescence measurements to monitor Acrylodan fluorescence in various solvents, to monitor adduct formation, and to obtain complete spectra were carried out using an SLM 8000C fluorometer. Measurements of the 505/432 intensity ratios (R values) used to monitor the FFA titrations of ADIFAB were done with either the SLM 8000C or a Perkin-Elmer MPF-2A fluorometer.
ADIFAB dose response to FFA and FFA aggregate formation was measured. The ratio of fluorescent intensities at emission wavelengths of 505/432 nm were measured as a function of added Na salts of several FFA. Resulting data are depicted graphically in FIGS. 6A, 6B and 6C. Conditions were similar to those used in FIG. 3 except that 100mM EGTA was used in obtaining the data depicted in FIGS. 6A and 6B, while the data depicted in FIG. 6C was obtained using 1 mM CaCl2. Measured R values were used to determine FFA and [FFAb]using equations (1) and (2). The solid curves through the data of FIGS. 6A and 6C represent best fits of equation (3) obtained using a non-linear least squares algorithm. Aggregate formation was detected by measuring 90° light scattering from FFA in the buffer of FIG. 3 containing no added calcium and titrated with the Na salts of the FFA as described above, see FIG. 6B. The smoothed curves through the data, intended to guide-the-eye, indicate that aggregate formation, as detected by a sharp increase in light scattering, is approximately coincident with the maximum R value observed in the experiment related to FIG. 6A. […]

Test [2] concerns the target T1, I-FABP (native, rat intestinal) (Rattus norvegicus, UniProt P02693).
T1 construct: made in house; host or cells: E. coli BL21 (pET11D)
T1 sequence (P02693 1-132): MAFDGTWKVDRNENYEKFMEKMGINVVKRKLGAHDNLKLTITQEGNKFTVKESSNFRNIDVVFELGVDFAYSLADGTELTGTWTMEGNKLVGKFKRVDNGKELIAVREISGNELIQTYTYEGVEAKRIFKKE
Briefly: Tryptophan fluorescence of native I-FABP on addition of FFA. As to conditions: as much as. It is filed as binding. Here is the method: In early work, cloning was carried out using a cDNA library from neo-natal rat intestine purchased from STRATAGENE (11099 North Torrey Pines Rd., La Jolla, CA 92037). The library is carried by the LAMBDA ZAP II vector and was used with the E. coil host strain XL 1Blue which is supplied with the library. The recombinant clone was identified with an oligonucleotide probe based upon the published sequence of the I-FABP DNA (Lowe, J. B., Sacchettini, J. C., Laposata, M., McQuillan, J. J. and Gordon, J. I. J. Biol. Chem. 262:5931, 1987) and sequencing of 5and 3regions was used to verify the identity and completeness of the gene. […] The I-FABP gene was removed from the lambda Zap vector and inserted into a PET expression vector (PET11 D) purchased from Novagen and the protein was expressed using the E. coil strains (BL2 1) also from Novagen (Madison, WI, USA). I-FABP is isolated from E. coil and purified as described, Lowe, J. B., Sacchettini, J. C., Laposata, M., McQuillan, J. J. and Gordon, J. I. J. Biol. Chem. 262:5931, 1987. In this procedure cells, after a 3-hour culture, are lysed, centrifuged to remove cell debris and the pellet frozen at -70 °C. The frozen pellet was allowed to thaw in the presence of a lysing buffer composed of 50mM Tris, 0.5mM EDTA, 0.5mM PMSF, 0.1% Triton X100, at pH 8.0. This was centrifuged at 20,000 g. for 45 minutes and the pellet was discarded. The lysate was then subjected to two rounds (50% and 70%) of ammonium sulfate precipitation and the supernatant from the 70% material was desalted and concentrated using an Amicon ultrafiltration apparatus with a YM10 filter. The flitrate was then subjected to DEAE-Sephadex (A50), followed by Sephadex G-75 chromatography and the low molecular weight fractions were saved. This material gives a single band on 12% PAGE and an amino acid analysis of this material was consistent with the amino acid sequence of I-FABP. […] The addition of FFA (oleate, stearate, or palmitate) reduced the tryptophan fluorescence of the native protein by as much as 40%.

Test [3] is described as follows: Fluorescence response of fluorescent-FABP probes to fatty acid binding. The test is classed as biochemical. The text has this:
Principles and exemplary methods for constructing probes as described and defined herein and methods for determining FFA levels are described in detail below. Using these principles fourteen different fluorescent-FABP derivatives have been constructed. This has been done using 3 different native FABPs (rat intestine (I-FABP), human adipocyte (A-FABP), and human heart (H-FABP)) plus 4 site-specific mutants of two of these (I-FABP, (Thr83Cys83, Thr81Cys81, Lys27Cys27 and H-FABP, Thr27Lys27), and these proteins have been derivatized with 4 different fluorophores (acrylodan, danzyl aziridine, 4-[N-[(2-iodoacetoxy)ethyl]-N-methylamino]-7-nitrobenz-2-oxa1,3-diazole ester (IANBDE), 4-[N-[(2-iodoacetoxy)ethyl]-N-methylamino]-7-nitrobenz-2-oxa-1,3-diazole these derivatives can serve as FFA probes, to some degree. To date, however, ADIFAB remains the one that has optimal properties for current applications. Obviously, by occupying, partially, the binding site with a fluorophore, FA must compete for its site and therefore the FA binding constant for the FABP may be altered from the native protein. This is indeed the case for ADIFAB for which the Kd is about 10 fold greater than for the native protein. So long as FA can bind, however, the derivatized molecule can still function as a FFA probe and so long as the probe's dynamic range is sufficient (as it is for ADIFAB, IANBDE and IANBDA) then FFA levels over a wide range, including those that are physiologic, can be measured.
The Cys27 mutant of I-FABP (Lys27 to Cys27) with acrylodan, IANBDE and IANBDA have also been labeled using the technique described. […] This is the behavior predicted from the construction principles set forth herein, and reflects the shorter tethering arm to Cys27 as compared to Lys27 which prevents the deeper insertion into the binding site that is observed in the Lys27 derivative. […] Thus, those skilled in the art can with considerable confidence predict whether protein modifications and/or choice of label will result in a FFA responsive probe.
Site-directed mutagenesis was used to introduce a cysteine residue at positions 82 or 84, in place of the threonine residues that are normally at this position. Mutagenesis was carried out by annealing a synthetic prirner with a single mismatched base to the above derived expression vector. The primer was extended and ligated in vitro, and the resulting heteroduplex was used to transfect the host strain. The transfected host was screened for the mutated DNA by hybridization with the mutating oligonucleotide. Mutated plasmid DNA was isolated, retransformed into the host strain, and its structure confirmed by sequencing the recombinant DNA in regions defined by probes flanking the mutated region. This modified protein was expressed in the same system and purified by the same methods as for the native protein. Typical yields of purified protein were approximately 50 mg/liter cell culture. The mutated I-FABP protein was fluorescently derivatized by inserting a fluorescent group (which reacts specifically with free SH groups) at the newly created cysteine residue. The cysteine residue was inserted at positions 82 (replacing a threonine residue) and/or at residue 84 (also a threonine residue) since both these positions face outward from the FFA binding pocket but are in close proximity to the tryptophan at position 83 (about 3.5Å lateral separation along the b strand and about 10Å vertical separation between the centers of the tryptophan and fluorescent residues). […] Thus, either the direct emission of the fluorescent group and/or the rate of resonance energy transfer between Trp83 and the fluorescent group was postulated to change. In a non-limiting prior specific example, the dansyl derivative ACRYLODAN®(6-acryloly-2dimethylamenonaphthalene) was used to modify the mutated FABP and this probe was designated FAD508.
ADIFAB dose response to FFA and FFA aggregate formation was measured. […]

Setting [4] is: FA-ADIFAB Dissociation Constants, Kd, no added calcium, FIG. 6A, buffer A pH 7.4.

Consider `CCCCCCCC/C=C\CCCCCCCC(=O)O` [OLEATE, oleate], for which the Kd worked out at 280 ± 10 nM in test [1] (setting [4]) and 310 nM in test [1] (Kd in the presence of calcium, 1 mM calcium). Besides, the “rank of Kd, in words” value in test [1] is listed as “smallest Kds”. Moreover, in test [2], the “reduction of the tryptophan fluorescence of the native protein” value (from here on “reduction … of the native protein”) is no more than 40%.
Regarding `CCCCCCCCCCCCCCCC(=O)O` [PALMITATE, palmitate], in test [1] (setting [4]), the Kd came to 320 ± 10 nM. For the same molecule, in test [1], the “rank of Kd, in words” value is “smallest Kds”. Moreover, in test [1] (normalized to oleate), the “Kd relative to oleate (fold greater than oleate)” value is recorded as “about 1.1 fold”. In test [2], the “reduction … of the native protein” value was no more than 40%.
Take `CCCCCCCCCCCCCCCCCC(=O)O` [stearate]: the “reduction … of the native protein” value in test [2] is given as no more than 40%.

B1: IANBDE derivative: Cys27 mutant of I-FABP (Lys27 to Cys27) labeled with IANBDE (conjugate, UniProt P02693 2-132, looked up, variant K27C)
Fatty acid-binding protein, …: AFDGTWKVDRNENYEKFMEKMGINVVCRKLGAHDNLKLTITQEGNKFTVKESSNFRNIDVVFELGVDFAYSLADGTELTGTWTMEGNKLVGKFKRVDNGKELIAVREISGNELIQTYTYEGVEAKRIFKKE
modifications: IANBDE (NBD ester) label
As to B1, in test [3], the “responsiveness of the probe to FA binding, in words” value (“responsiveness of the probe” below) is listed as “among the most sensitive”. For the same molecule, the “reduction in intensity at 550 nm” value in test [3] (with 1 mM oleate, I-FABP Cys27 mutant) turned out to be 60%.

B2: Lys27 on I-FABP with danzyl aziridine: Lys27 on I-FABP with danzyl aziridine has been derivatized (conjugate, UniProt P02693 2-132, looked up)
Fatty acid-binding protein, …: B1 Fatty acid-binding protein, … with C27K
modifications: dansyl aziridine label at Lys27
notes: Lys27 on I-FABP with danzyl aziridine has been derivatized
As for B2, the “responsiveness of the probe” value in test [3] is “exhibits an increase in 450 nm fluorescence upon FA binding”.

B3: Cys27 mutant of I-FABP with acrylodan: Cys27 mutant of I-FABP (Lys27 to Cys27) with acrylodan (conjugate, UniProt P02693 2-132, looked up, variant K27C)
Fatty acid-binding protein, …: B1 Fatty acid-binding protein, …
modifications: acrylodan label
On to B3, for which the “responsiveness of the probe” value in test [3] is on record as “the relative change upon FA binding is smaller than for ADIFAB”.

B4: Native A-FABP labeled with acrylodan: Native A-FABP which contains two cysteines, was labeled with acrylodan (conjugate, UniProt P15090 2-132, looked up)
Fatty acid-binding protein, …: CDAFVGTWKLVSSENFDDYMKEVGVGFATRKVAGMAKPNMIISVNGDVITIKSESTFKNTEISFILGQEFDEVTADDRKVKSTITLDGGVLVHVQKWDGKSTTIKRKREDDKLVVECVMKGVTSTRVYERA
modifications: acrylodan label
As for B4, the “responsiveness of the probe” value in test [3] is given as “only poorly responsive”.

B5: Native A-FABP labeled with NBD: Native A-FABP labeled with the N-[7-(4-nitrobenzo-2-oxa-1,3-diazol) (NBD) moieties (conjugate, UniProt P15090 2-132, looked up)
Fatty acid-binding protein, …: B4 Fatty acid-binding protein, …
modifications: NBD label
notes: Native A-FABP labeled with the N-[7-(4-nitrobenzo-2-oxa-1,3-diazol) (NBD) moieties
For B5, the “responsiveness of the probe” value in test [3] was “only poorly responsive”.
